Laboratory results taken from ChEMBL document CHEMBL1201862, “PubChem BioAssay data set” (2004).
Active and inactive are the calls of the source.

How the values were obtained:
[1] = molecular target: T1, Cytochrome P450 2C9 (Homo sapiens, UniProt P11712)
[2] = molecular target: T2, Cytochrome P450 2D6 (Homo sapiens, UniProt P10635); assay: qHTS Assay for Inhibitors and Substrates of Cytochrome P450 2D6. [Related pubchem assays: 410 ]; format: ADME; details: read-out: Potency
[3] = molecular target: T2, Cytochrome P450 2D6
[4] = molecular target: T3, Cytochrome P450 1A2 (Homo sapiens, UniProt P05177);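 also: PubChem cytochrome P450 panel assay, CYP1A2 panel member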
T3 sequence (P05177 whole entry): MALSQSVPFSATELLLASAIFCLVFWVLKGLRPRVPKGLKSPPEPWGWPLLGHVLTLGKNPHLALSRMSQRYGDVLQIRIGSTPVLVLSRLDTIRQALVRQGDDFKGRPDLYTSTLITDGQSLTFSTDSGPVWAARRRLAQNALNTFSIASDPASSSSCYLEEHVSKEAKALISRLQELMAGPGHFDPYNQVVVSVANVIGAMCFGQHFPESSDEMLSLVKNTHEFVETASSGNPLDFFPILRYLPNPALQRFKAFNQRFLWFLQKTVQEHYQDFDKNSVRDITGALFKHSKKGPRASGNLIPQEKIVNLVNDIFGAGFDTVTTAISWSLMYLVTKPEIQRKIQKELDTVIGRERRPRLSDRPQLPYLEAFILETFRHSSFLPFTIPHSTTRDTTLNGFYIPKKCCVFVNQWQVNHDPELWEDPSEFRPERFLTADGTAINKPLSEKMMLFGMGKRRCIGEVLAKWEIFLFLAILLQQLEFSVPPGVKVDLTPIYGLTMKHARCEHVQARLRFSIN

[5] = molecular target: T1, Cytochrome P450 2C9; details: Potency
[6] = molecular target: Cytochrome P450 2C19 (Homo sapiens, UniProt P33261); assay: Cytochrome panel assay with activity outcomes. Panel member name: p450-cyp2c19 Compounds with AC50 equal or less than 10 uM are considered active; format: functional; details: read-out: AC50
Chain of Cytochrome P450 2C19 (P33261 whole entry): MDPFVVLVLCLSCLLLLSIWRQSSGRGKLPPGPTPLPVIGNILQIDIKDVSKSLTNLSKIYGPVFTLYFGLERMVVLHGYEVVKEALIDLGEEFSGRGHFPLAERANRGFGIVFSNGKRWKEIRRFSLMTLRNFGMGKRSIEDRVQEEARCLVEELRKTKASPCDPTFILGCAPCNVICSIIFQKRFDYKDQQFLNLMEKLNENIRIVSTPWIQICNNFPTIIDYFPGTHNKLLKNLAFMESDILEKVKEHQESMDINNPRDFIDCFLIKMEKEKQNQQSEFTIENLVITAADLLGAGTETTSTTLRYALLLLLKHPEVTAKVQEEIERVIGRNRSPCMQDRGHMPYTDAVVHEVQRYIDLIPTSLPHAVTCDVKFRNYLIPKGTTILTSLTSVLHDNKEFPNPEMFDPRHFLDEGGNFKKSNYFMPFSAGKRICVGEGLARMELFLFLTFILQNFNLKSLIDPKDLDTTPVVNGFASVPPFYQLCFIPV

[7] = molecular target: Photoreceptor-specific nuclear receptor (Homo sapiens, UniProt Q9Y5X4); format: functional;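 also: potency for compounds that break the NR2E3 corepressor complex and count as activators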
Chain of Photoreceptor-specific nuclear receptor (Q9Y5X4 whole entry): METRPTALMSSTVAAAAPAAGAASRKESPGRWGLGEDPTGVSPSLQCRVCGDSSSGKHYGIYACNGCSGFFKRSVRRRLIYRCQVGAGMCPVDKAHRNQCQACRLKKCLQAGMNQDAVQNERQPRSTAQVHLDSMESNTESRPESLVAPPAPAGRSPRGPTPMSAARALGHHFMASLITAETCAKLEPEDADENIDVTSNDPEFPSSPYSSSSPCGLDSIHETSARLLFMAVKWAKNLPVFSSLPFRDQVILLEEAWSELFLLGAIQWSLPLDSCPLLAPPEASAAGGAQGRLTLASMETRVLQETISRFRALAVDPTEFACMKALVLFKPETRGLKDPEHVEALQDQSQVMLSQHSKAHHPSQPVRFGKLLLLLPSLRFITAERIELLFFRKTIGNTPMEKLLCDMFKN

[8] = molecular target: Intestinal-type alkaline phosphatase (Mus musculus, UniProt P24822); assay: PubChem AID 488874; format: functional
[9] = molecular target: Peroxisome proliferator-activated receptor gamma/Nuclear receptor corepressor 2 (Homo sapiens, UniProt P37231+Q9Y618); format: functional
[10] = molecular target: T4, Intestinal-type alkaline phosphatase (Homo sapiens, UniProt P09923); assay: Dose Response confirmation of uHTS hits from a small molecule inhibitors of human intestinal alkaline phosphatase via a luminescent assay. [Related pubchem assays (depositor defined):AID2544, AID2574]; format: functional
T4 sequence (P09923 whole entry): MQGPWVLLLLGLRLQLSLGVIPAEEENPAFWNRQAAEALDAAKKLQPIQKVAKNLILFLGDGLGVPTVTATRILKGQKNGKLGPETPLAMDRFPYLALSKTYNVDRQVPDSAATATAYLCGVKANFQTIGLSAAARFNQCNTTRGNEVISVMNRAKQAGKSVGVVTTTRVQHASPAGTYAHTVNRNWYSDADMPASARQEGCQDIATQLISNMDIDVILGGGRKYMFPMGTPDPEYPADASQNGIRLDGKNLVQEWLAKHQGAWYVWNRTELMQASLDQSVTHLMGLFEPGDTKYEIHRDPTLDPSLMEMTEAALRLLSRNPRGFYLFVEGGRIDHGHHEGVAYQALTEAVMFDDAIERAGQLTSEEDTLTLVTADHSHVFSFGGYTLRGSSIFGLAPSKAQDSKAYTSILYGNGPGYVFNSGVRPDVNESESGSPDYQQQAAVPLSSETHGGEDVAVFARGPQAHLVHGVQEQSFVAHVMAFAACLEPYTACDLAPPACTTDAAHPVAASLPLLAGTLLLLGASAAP

[11] = molecular target: T5, Alkaline phosphatase, tissue-nonspecific isozyme (Homo sapiens, UniProt P05186); assay: activation of tissue-nonspecific alkaline phosphatase – biochemical, TNAP isozyme, human IAP uHTS hits, selectivity assay for human IAP activator project, dose response (AID 488886); format: functional;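 also: potency of compounds raising TNAP activity as a selectivity check on IAP activators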
T5 sequence (P05186 whole entry): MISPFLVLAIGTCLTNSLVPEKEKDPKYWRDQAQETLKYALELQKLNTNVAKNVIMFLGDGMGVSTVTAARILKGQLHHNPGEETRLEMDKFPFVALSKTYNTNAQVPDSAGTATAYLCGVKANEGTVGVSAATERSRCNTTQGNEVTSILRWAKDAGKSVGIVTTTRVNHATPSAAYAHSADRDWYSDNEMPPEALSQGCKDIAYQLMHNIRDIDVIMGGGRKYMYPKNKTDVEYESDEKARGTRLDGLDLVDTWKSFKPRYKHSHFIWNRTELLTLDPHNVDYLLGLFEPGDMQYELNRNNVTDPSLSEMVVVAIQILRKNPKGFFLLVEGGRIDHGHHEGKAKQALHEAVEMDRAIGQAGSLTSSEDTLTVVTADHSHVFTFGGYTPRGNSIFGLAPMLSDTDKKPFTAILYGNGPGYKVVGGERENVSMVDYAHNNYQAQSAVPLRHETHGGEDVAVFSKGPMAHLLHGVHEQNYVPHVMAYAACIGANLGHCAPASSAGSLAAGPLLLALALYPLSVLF

[12] = molecular target: T4, Intestinal-type alkaline phosphatase; assay: inhibition of human intestinal alkaline phosphatase – biochemical, luminescent, uHTS hits, set 2, dose response (AID 488793); format: functional
[13] = molecular target: Large T antigen (Simian virus 40, UniProt P03070); format: functional, Betapolyomavirus macacae;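 also: Confirmatory-stage PubChem screen for compounds that inhibit SV40 T antigen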
[14] = tested on: Streptococcus; assay: Luminescence Microorganism-Based Dose Response Follow up to Identify Compounds Cytotoxic to Streptococcus. [Related pubchem assays: 1677 (Project Summary), 1915, 1914, 1902 (Retest at Dose), 1900 (Counter Screen), 1662 (Primary HTS)]; format: functional, organism-based
[15] = tested on: Streptococcus; assay: GAS UMAA2166 growth inhibition – luminescence, BacTiterGlo, counter-screen for streptokinase expression inhibitor project, dose response (AID 1915); format: functional, organism-based;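 also: potency for reduction of bacterial viability or growth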
[16] = molecular target: T6, Streptokinase A (Streptococcus pyogenes serotype M1, UniProt P10520); assay: viability-normalized secreted streptokinase activity reduction – plasminogen activation absorbance, OD405, dose response (AID 1914); format: functional, Streptococcus pyogenes M1 GAS;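 also: secreted streptokinase activity via plasminogen activation per viability signal from cell pellet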
T6 sequence (P10520 whole entry): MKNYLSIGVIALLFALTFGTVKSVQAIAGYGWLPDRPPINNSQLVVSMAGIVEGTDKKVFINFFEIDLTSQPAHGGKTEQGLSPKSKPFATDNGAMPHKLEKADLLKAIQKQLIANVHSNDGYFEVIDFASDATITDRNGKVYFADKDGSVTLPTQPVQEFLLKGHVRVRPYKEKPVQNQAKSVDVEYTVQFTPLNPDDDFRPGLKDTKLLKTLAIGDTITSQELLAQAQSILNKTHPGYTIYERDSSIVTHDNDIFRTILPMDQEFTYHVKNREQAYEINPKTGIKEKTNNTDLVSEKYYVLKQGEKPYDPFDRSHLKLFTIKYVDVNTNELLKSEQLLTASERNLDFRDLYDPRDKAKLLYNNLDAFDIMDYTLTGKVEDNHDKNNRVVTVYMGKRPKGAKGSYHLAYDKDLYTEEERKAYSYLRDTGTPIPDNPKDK

[17] = Luminescence Cell-Based Dose Response HTS to Identify Inhibitors of 5'UTR Stem-Loop Driven Prion Protein mRNA Translation in H4 Neuroglioblastoma Cells. [Related pubchem assays: 1827 (Project Summary), 1813 (Primary HTS)]; format: functional
[18] = luciferase reporter signal suppression in cells – H4 neuroglioma cells, luminescence, dose response (AID 1990); format: functional, cell-based
[19] = alpha-synuclein stem-loop luciferase translation blockers – H4 neuroglioma cells, luminescence, confirmation (AID 1988); format: functional, cell-based
[20] = tested on: Streptococcus sp. 'group A'; assay: Streptococcus pyogenes SK(-)GAS viability under kanamycin – luminescence, BacTiterGlo, confirmation, counter-screen for streptokinase expression inhibitor project, dose response (AID 1900); format: functional, organism-based; details: read-out: EC50
[21] = tested on: Vero; assay: host cell viability loss, Vero E6 – synthesized analogs, cytotoxicity control for West Nile virus antiviral project, SAR follow-up (AID 2244); format: functional; details: Chlorocebus sabaeus
[22] = tested on: Vero; assay: Vero 76 cell viability after compound exposure – Vero 76 cells, synthesized analogs, cytotoxicity control for West Nile virus antiviral project, SAR follow-up (AID 2414); format: functional; details: Chlorocebus sabaeus
[23] = tested on: Vero; assay: Vero cell viability after compound exposure – synthesized analogs, set II, cytotoxicity control for West Nile virus antiviral project, SAR follow-up (AID 2402); format: functional; details: Chlorocebus sabaeus
[24] = molecular target: Chaperone protein dnaK (Escherichia coli, UniProt C3TRK2); assay: E. coli DnaK binders, calorimetric Kd – biophysical, isothermal titration calorimetry, beta-domain, full-length DnaK, orthogonal assay for DnaK modulator project, SAR follow-up (AID 1495)
Chain of Chaperone protein dnaK (C3TRK2 whole entry): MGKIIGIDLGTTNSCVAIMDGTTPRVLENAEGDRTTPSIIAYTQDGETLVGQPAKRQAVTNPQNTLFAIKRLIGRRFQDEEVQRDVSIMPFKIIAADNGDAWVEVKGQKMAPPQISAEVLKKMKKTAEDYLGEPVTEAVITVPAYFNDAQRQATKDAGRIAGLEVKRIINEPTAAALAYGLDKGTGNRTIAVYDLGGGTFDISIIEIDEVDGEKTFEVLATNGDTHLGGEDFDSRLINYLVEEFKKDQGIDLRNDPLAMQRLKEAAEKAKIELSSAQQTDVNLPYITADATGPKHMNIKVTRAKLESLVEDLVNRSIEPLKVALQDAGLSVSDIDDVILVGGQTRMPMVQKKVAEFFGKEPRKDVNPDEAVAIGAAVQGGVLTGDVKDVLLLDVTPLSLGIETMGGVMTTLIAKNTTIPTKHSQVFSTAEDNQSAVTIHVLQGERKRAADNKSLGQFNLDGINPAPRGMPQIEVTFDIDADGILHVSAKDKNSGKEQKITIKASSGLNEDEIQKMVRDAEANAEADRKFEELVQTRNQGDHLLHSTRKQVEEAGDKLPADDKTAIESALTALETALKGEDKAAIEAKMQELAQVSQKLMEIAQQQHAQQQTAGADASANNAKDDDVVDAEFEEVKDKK

[25] = tested on: Vibrio harveyi; assay: Quorum Sensing, LuxS, LuxPQ Measured in Microorganism System Using Plate Reader - 2035-01_Inhibitor_DoseNoFile_DryPowder_Activity. [Related pubchem assays (depositor defined):AID2106]; format: functional, organism-based
[26] = tested on: Vibrio harveyi; assay: LuxS/LuxPQ-dependent luminescence inhibition, V. harveyi – dry powder, set 2, dose response (AID 493072); format: functional, organism-based
[27] = molecular target: Cytochrome P450 3A4 (Homo sapiens, UniProt P08684); details: Potency;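 also: confirmatory qHTS run detecting inhibitors and substrates of CYP3A4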
Chain of Cytochrome P450 3A4 (P08684 whole entry): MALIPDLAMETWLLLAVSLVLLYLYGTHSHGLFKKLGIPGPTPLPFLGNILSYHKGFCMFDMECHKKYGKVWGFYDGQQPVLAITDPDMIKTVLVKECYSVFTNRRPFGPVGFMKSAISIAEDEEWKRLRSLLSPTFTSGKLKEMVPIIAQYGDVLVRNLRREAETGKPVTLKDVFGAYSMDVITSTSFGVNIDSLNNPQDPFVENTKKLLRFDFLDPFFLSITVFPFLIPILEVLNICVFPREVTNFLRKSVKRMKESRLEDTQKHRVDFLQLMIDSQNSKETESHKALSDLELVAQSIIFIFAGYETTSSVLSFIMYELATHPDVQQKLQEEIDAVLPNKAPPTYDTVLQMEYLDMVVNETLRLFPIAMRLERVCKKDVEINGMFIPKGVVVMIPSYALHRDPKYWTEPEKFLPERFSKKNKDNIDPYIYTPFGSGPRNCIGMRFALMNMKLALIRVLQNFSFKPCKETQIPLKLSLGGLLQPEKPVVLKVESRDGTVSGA

[28] = molecular target: Protein Rev (Human immunodeficiency virus type 1 group M subtype B (isolate WMJ22)(HIV-1), UniProt P05866); assay: inhibitors of Rev protein–RRE RNA complex – biochemical, protein-RNA interaction, dose response (AID 842); set-up: species or system Human immunodeficiency virus 1
Chain of Protein Rev (P05866 whole entry): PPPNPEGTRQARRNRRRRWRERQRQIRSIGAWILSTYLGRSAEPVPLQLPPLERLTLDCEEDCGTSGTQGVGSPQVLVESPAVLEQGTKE

[29] = molecular target: T7, Bcl-2-related protein A1 (Mus musculus, UniProt Q07440); assay: small-molecule antagonists of Bfl-1/BH3 interaction – biochemical, TR-FRET, mouse Bfl-1, confirmation (AID 621);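 also: TR-FRET binding of GST-Bfl-1 to FITC-labelled Bid peptide via terbium antibody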
T7 sequence (Q07440 whole entry): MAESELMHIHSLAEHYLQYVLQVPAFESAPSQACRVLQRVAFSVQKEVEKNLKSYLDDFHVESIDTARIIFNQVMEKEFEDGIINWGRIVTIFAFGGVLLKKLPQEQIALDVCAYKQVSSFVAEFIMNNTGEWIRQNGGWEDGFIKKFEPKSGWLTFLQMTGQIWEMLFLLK

[30] = molecular target: T7, Bcl-2-related protein A1; assay: displacement of Bid BH3 peptide from Bfl-1 – biochemical, fluorescence polarization, FITC-Bid, mouse, primary screen (AID 432)
[31] = molecular target: T8, Calpain-2 catalytic subunit (Sus scrofa, UniProt P43367); assay: m-calpain protease blockers, concentration series – biochemical, fluorogenic peptide substrate, dose response (AID 1420); format: functional
T8 sequence (P43367 whole entry): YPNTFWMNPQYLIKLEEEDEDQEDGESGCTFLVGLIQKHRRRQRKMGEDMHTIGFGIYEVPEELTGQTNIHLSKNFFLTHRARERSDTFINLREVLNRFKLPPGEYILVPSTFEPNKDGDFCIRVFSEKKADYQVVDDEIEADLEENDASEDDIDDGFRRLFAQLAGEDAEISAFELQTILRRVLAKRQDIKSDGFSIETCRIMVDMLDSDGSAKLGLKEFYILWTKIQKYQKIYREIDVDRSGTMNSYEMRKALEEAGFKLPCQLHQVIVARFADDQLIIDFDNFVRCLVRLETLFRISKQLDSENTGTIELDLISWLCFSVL

[32] = molecular target: T9, Eukaryotic translation initiation factor 2-alpha kinase 3 (Homo sapiens, UniProt Q9NZJ5); assay: Counterscreen assay for PERK inhibitors: Dose response cell-based high throughput screening assay to measure inhibition of PERK at 6 hours. [Related pubchem assays: 1522, 1416 ]; format: functional
T9 sequence (Q9NZJ5 whole entry): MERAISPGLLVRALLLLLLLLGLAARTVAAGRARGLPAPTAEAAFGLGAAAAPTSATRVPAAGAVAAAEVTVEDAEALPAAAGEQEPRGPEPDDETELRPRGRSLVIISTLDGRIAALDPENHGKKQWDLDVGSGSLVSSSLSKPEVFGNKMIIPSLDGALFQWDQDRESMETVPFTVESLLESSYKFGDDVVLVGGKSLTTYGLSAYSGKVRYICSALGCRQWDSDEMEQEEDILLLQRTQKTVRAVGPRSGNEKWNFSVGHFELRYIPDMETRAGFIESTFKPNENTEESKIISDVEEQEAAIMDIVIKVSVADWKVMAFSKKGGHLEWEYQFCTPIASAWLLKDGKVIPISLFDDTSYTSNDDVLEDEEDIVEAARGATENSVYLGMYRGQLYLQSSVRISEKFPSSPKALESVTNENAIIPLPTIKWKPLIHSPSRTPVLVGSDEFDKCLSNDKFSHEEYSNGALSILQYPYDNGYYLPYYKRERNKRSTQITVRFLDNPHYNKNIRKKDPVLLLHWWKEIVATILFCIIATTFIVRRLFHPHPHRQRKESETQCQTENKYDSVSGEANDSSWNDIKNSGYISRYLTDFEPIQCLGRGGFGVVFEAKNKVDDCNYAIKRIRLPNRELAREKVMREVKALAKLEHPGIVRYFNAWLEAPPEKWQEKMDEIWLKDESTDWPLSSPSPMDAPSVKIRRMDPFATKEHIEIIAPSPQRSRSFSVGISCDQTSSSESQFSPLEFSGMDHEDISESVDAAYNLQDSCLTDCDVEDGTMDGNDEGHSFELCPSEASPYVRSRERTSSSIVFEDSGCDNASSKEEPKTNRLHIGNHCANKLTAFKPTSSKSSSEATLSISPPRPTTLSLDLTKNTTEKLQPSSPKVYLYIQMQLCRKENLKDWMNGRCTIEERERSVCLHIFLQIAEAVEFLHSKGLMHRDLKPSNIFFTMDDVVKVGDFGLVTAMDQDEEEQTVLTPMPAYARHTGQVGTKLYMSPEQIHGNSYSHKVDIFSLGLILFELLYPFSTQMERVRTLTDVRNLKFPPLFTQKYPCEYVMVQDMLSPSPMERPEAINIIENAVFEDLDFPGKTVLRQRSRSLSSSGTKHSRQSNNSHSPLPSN

[33] = molecular target: T9, Eukaryotic translation initiation factor 2-alpha kinase 3; assay: Dose response cell-based high-throughput screening assay to measure PERK inhibition. [Related pubchem assays: 1416 ]; format: functional
[34] = molecular target: Transitional endoplasmic reticulum ATPase (Homo sapiens, UniProt P55072); assay: p97 ATPase inhibitors, dose response, biochemical (AID 1534)
[35] = A cytotoxicity screen of small molecule inhibitors of the PhoP region in Salmonella typhi identified in the primary screen. [Related pubchem assays: 1850, 1864, 1985 ]; format: functional
[36] = molecular target: Transitional endoplasmic reticulum ATPase (Homo sapiens, UniProt P55072, C522A); assay: C522A mutant p97 ATPase inhibitors, dose response, counter-screen for p97 inhibitor project, biochemical, luminescence (AID 1544)
[37] = tested on: Vero; assay: cells; format: functional, cell-based; details: Chlorocebus sabaeus

T2 sequence (P10635 whole entry): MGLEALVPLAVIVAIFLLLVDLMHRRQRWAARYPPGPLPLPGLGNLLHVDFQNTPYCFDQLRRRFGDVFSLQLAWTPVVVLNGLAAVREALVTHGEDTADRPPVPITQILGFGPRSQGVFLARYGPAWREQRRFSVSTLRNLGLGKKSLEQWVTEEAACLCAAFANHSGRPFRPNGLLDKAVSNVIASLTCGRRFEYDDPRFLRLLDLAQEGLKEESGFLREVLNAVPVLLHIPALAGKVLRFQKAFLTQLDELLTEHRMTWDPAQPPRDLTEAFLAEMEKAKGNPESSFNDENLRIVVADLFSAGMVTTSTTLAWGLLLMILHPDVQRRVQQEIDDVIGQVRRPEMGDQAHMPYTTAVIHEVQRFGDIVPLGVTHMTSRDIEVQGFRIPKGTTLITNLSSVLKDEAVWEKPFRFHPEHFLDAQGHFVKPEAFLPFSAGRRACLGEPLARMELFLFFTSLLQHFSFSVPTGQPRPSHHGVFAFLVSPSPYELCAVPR
T1 sequence (P11712 whole entry): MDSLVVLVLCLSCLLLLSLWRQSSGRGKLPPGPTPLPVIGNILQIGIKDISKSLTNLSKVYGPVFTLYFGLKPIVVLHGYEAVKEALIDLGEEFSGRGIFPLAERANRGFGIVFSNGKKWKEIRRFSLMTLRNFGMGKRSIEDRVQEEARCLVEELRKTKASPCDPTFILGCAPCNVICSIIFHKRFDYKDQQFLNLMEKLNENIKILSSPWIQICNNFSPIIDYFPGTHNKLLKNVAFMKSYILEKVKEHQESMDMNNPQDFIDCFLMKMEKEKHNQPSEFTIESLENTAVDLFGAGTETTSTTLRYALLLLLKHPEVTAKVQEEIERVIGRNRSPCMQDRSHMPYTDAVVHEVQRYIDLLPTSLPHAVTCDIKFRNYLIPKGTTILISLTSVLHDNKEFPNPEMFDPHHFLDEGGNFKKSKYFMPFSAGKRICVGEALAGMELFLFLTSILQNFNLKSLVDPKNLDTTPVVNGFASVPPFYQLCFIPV

## O=C(CCNNC(=O)c1ccncc1)NCc1ccccc1 [NIALAMIDE]
[1]
  AC50: 10 µM (inconclusive)
[2]
  AC50: 25.1 µM (inconclusive)
[3]
  AC50: 7.94 µM (inconclusive)
[4]
  AC50: 12.6 µM (inconclusive)
[5]
  AC50: 25.1 µM (inconclusive)
[6]
  AC50: 10 µM (inconclusive)

## O=c1c2cc(O)c(O)cc2oc2cc(O)c(C3OC(CO)C(O)C(O)C3O)c(O)c12 (stereo not drawn)
[7]
  IC50: > 39.8 µM (not active)
[8]
  IC50: 14 µM (active)
[9]
  IC50: > 39.8 µM (not active)
[10]
  IC50: 1.19 µM (active)
[11]
  EC50: > 100 µM (inactive)
[12]
  IC50: 0.262 µM (active)
[13]
  IC50: 8.63 µM (active)

## Cc1cccc(C)c1Oc1nc(-c2ccccc2)ncc1S(=O)(=O)c1ccccc1
[14]
  EC50: > 500 µM (not active)
[15]
  EC50: > 150 µM (not active)
[16]
  EC50: 3.99 µM (active)
[17]
  EC50: 29.8 µM (active)
[18]
  EC50: 13.2 µM (active)
[19]
  EC50: 16.9 µM (active)
[20]
  EC50: 44.1 µM (active)

## O=c1c2cc(Br)ccc2nc2n1CC/C2=C/c1ccccc1
[21]
  CC50: > 40 µM (active)
[22]
  CC50: > 66.6 µM (active)
[23]
  CC50: 33.3 µM (active)

## Nc1ccc2c(ccn2C(=O)c2cccs2)c1
[24]
  Kd: 3.4 µM (active)

## Cc1cccc(NS(=O)(=O)c2ccc(Oc3ccccc3)cc2)n1
[25]
  AC50: 2.4 µM (active)
[26]
  AC50: 4.9 µM (active)
[26]; Vibrio harveyi
  AC50: 5.99 µM (active)

## COCCN(CCOC)c1nc(C)nc2c1nc(-c1ccccc1)n2CCN(C)C
[27]
  AC50: 15.8 µM (inconclusive)

## COc1cccc(OC)c1-c1nn2c(-c3cc(-c4ccccc4)n[nH]3)nnc2s1
[28]
  IC50: > 79.4 µM (not active)
[29]
  IC50: > 100 µM (not active)
[30]
  IC50: 14.1 µM (active)
[31]
  IC50: > 50 µM (not active)

## COc1ccc(/C=C/C(=O)N[C@@H](C)C(=O)O)cc1
[32]
  EC50: > 55.7 µM (not active)
[33]
  EC50: > 55.7 µM (not active)

## [O-][n+]1onc2c1CCc1[nH]c(-c3ccccc3)nc1-2
[34]
  IC50: > 50 µM (not active)
[35]
  EC50: > 50 µM (active)
[36]
  IC50: > 50 µM (not active)
[37]
  IC50: 14 µM (active)
